Data taken from publication PMC8775252, “Characterization of Alternaria porri causing onion purple blotch and its antifungal compound magnolol identified from Caryodaphnopsis baviensis” (PLoS ONE, 2022).
≈ marks a conversion by molar mass, not a printed value. Read-outs that look alike come from different tables or passages of the source.

What was measured:
[1] = test system: Colletotrichum cocodes; assay: microbe, parasite or virus in culture; format: cell-based; settings: 72 h, 3 days, 25°C
[2] = test system: Magnaporthe oryzae; assay: microbe, parasite or virus in culture; format: cell-based; settings: Pyricularia oryzae, 72 h; 3 days, 25°C
[3] = test system: Fusarium oxysporum; assay: microbe, parasite or virus in culture; format: cell-based, Fusarium oxysporum f. sp. lycopersici; settings: 72 h, 3 days, 25°C
[4] = test system: Phytophthora infestans; assay: microbe, parasite or virus in culture; format: cell-based; settings: 72 h, 3 days, 25°C
[5] = test system: Botrytis cinerea; assay: microbe, parasite or virus in culture; format: cell-based; settings: 72 h, 3 days, 25°C
[6] = test system: Alternaria porri; assay: microbe, parasite or virus in culture; format: cell-based; settings: 72 h, 3 days, 25°C
[7] = test system: Alternaria brassicicola; assay: microbe, parasite or virus in culture; format: cell-based; settings: 72 h, 3 days, 25°C
[8] = biological target: OXPHOS complex II (Bos taurus, UniProt P31039+P35720+Q3T189+Q95123); assay: biochemical
OXPHOS complex II, sequence (Q95123 56-158): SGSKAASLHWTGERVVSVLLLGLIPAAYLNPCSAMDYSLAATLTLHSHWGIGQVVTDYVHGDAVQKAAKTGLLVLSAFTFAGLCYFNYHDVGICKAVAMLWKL
OXPHOS complex II, sequence (P31039 44-665): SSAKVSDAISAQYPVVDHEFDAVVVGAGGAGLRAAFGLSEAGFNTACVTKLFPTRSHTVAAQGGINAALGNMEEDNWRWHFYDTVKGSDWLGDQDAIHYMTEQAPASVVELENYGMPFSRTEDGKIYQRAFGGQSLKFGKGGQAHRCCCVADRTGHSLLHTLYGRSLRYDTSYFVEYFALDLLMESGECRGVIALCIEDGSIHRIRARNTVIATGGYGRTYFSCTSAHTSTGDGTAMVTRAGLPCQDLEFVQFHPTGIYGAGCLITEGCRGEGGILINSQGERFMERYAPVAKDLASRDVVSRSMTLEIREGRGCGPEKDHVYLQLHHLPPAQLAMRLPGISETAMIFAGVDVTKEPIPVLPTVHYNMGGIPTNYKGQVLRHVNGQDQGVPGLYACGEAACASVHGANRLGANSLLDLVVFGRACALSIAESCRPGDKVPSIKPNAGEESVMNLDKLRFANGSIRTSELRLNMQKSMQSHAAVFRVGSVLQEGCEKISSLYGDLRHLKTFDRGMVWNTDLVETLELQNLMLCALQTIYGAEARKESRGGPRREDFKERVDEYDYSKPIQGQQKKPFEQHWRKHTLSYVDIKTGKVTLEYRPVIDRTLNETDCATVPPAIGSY
OXPHOS complex II, sequence (P35720 30-169): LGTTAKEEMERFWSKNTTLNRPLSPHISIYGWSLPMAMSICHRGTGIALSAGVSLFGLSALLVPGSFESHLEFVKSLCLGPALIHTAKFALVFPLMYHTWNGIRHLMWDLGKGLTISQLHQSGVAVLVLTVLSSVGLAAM
OXPHOS complex II, sequence (Q3T189 29-280): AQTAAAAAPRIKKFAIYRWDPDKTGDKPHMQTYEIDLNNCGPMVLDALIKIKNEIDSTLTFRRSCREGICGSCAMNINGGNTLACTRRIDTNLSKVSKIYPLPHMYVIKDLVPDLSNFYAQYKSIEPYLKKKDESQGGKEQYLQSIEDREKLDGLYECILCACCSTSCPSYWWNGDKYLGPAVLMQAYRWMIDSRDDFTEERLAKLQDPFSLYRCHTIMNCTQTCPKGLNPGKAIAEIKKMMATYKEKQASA

[9] = biological target: OXPHOS complex III (Bos taurus, UniProt P00125+P00157+P13272); format: biochemical
[10] = test system: OXPHOS complex I; format: biochemical
[11] = biological target: OXPHOS complex IV (Bos taurus, UniProt P00396+P68530); assay: biochemical
[12] = test system: onion plants; settings: in vivo
[13] = in vivo, cited from earlier work
[14] = biological target: OXPHOS complex V (Bos taurus, UniProt P00829+P19483); assay: MitoTox Complete OXPHOS Activity Assay; format: biochemical
[15] = test system: Alternaria porri; assay: microbe, parasite or virus in culture; format: cell-based
[16] = test system: Alternaria porri; assay: microbe, parasite or virus in culture; format: cell-based; remark: listed apart in the source
[17] = test system: onion purple blotch (Alternaria porri); format: in vivo, Allium cepa L.; settings: sprayed at 100 μg/ml, 5 dpi

`C[C@@H]1C[C@@H]([C@H](O)CC2CC(=O)NC(=O)C2)C(=O)[C@@H](C)C1` [Cycloheximide, cycloheximide, reference compound] gave an MIC [1] of 1.6 µg/mL (≈ 5.69 µM), an MIC [2] of 6.3 µg/mL (≈ 22.4 µM) and an MIC [3] of 200 µg/mL (≈ 711 µM). The MIC [4] was 1.6 µg/mL (≈ 5.69 µM), the MIC [5] was 50 µg/mL (≈ 178 µM) and the MIC [6] was 6.3 µg/mL (≈ 22.4 µM). For the same compound, the MIC [7] was 6.3 µg/mL (≈ 22.4 µM).

For `O=C(CC(=O)C(F)(F)F)c1cccs1` [TTFA, thenoyltrifluoroacetone, reference compound], the “effect on complex II activity” value [8] was “suppressed each complex activity in a concentration-dependent manner”.

With `CCCCCC[C@H]1C(=O)O[C@H](C)[C@H](NC(=O)c2cccc(NC=O)c2O)C(=O)O[C@@H](C)[C@@H]1OC(=O)CC(C)C` [antimycin A, reference compound] the “effect on complex III activity” value [9] was “suppressed each complex activity in a concentration-dependent manner”.

In the case of `C=CCc1ccc(O)c(-c2cc(CC=C)ccc2O)c1` [magnolol, 5,5’-di-2-propenyl-1,1’-biphenyl-2,2’-diol], the “activity of complex I” value [10] is reported as 78%, the “effect on complex I activity” value [10] is reported as “decreased by the magnolol treatment in a concentration-dependent manner” and the MIC [1] is reported as 6.3 µg/mL (≈ 23.7 µM). The MIC [2] was 3.1 µg/mL (≈ 11.6 µM), the MIC [3] was 25 µg/mL (≈ 93.9 µM) and the MIC [4] was over 100 µg/mL. For the same compound, the IC50 [11] was 10.9 µM, the MIC [5] was 25 µg/mL (≈ 93.9 µM) and the IC50 ([9]; read-out: IC50, complex III activity) was 19.4 µM. For the same compound, the phytotoxic symptoms [12] was “no phytotoxic symptoms”, the “excreted in the feces and urine” value ([13]; po) was over 90% and the “oral dose remaining circulating in the free form” value [13] was 1%. The MIC [6] was 6.3 µg/mL (≈ 23.7 µM), the IC50 ([14]; read-out: IC50, complex V activity) was 4.7 µM and the IC50 ([15]; 10 h, read-out: IC50, spore germination) was 4.5 µg/mL (≈ 16.9 µM). The MIC ([15]; read-out: MIC, spore germination completely inhibited) was 11 µg/mL (≈ 41.3 µM), the MIC [7] was 6.3 µg/mL (≈ 23.7 µM) and the IC50 [8] was 8.3 µM. The “inhibitory activity on mycelial growth compared with mancozeb” value [16] was “more potent than that of the broad-spectrum fungicide mancozeb”, the IC50 ([16]; Alternaria porri, 168 h, read-out: IC50, mycelial growth) was 5.4 µg/mL (≈ 20.3 µM) and the MIC ([16]; Alternaria porri, read-out: MIC, mycelial growth completely inhibited) was 100 µg/mL (≈ 375 µM).

In the case of `CC[C@H]1/C=C/C=C/C[C@@H](C)[C@H](O)[C@@](C)(O)C(=O)[C@@H](C)[C@H](O)[C@@H](C)C(=O)[C@@H](C)[C@H](O)[C@@H](C)/C=C/C(=O)O[C@@H]2[C@H](C)[C@H](CC1)O[C@]1(CC[C@H](C)[C@H](C[C@@H](C)O)O1)[C@H]2C` [oligomycin, reference compound], the “effect on complex V activity” value ([14]; result in words, S6 Fig) is reported as “suppressed each complex activity in a concentration-dependent manner”.

For `C=C(C)[C@H]1Cc2c(ccc3c2O[C@@H]2COc4cc(OC)c(OC)cc4[C@@H]2C3=O)O1` [rotenone, reference compound], the “effect on complex I activity” value [10] was “suppressed each complex activity in a concentration-dependent manner”.

Compound mancozeb has a disease control value [17] of 95%.
